# Source: US20250388565A1, “ESTROGEN RECEPTOR ALPHA DEGRADERS AND METHODS OF USE THEREOF” (Relay Therapeutics, Inc., priority 2022, published 2025)
# Molecular target: T1, ERα protein (HiBiT-tagged) in ESR1_HiBiT KI MCF7 cells (Homo sapiens, UniProt P03372)
# T1 sequence (P03372 1-595): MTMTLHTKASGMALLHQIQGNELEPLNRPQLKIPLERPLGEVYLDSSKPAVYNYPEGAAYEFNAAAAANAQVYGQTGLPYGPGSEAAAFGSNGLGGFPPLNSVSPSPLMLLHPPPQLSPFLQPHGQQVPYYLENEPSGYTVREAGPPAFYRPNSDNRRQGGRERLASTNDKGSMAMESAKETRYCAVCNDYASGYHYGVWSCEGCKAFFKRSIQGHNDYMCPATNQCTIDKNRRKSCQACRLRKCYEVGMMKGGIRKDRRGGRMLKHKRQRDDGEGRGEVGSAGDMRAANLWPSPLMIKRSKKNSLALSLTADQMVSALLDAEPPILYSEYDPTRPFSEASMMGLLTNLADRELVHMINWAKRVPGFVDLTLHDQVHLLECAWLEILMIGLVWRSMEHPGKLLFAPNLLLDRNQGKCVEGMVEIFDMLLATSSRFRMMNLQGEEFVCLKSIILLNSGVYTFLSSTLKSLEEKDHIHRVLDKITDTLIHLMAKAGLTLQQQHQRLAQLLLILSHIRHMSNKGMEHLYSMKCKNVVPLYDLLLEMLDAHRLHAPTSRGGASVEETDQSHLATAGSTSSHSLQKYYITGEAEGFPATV
# Test: Nano Glo HiBiT Lytic Degradation Assay
# Format: cell-based
# Details: 6 hours with compound, 14-point dose response 1:3, bell-shape curve fit, half-maximal effect of first Hill model, read-out: MCF7 ESR1 HiBiT - (DC50)
# Experimental: Selected compounds of the present disclosure were tested in a Nano Glo HiBiT Lytic Degradation Assay to measure the level of ERα protein degradation in MCF7 cells.
# Cell culture: ESR1_HiBiT KI MCF7 cells were maintained in growth media without antibiotics. Cells were maintained in exponential growth phase, between 40% and 90% confluency.
# Cell seeding: Cells were counted using a Vi-Cell and seeded in a 384-well flat-bottom microplate (cell culture-treated) at 4000 cells/well in 25 μL of growth medium using a BioTek MultiFlo Multimode Dispenser. Plates were incubated for 24 h at 37° C., 5% CO2, >95% relative humidity.
# Compound preparation: Compounds were screened as 14-point dose response curves 1:3 dilutions. DMSO is used as the vehicle control and all wells were normalized to the same final DMSO concentration (0.1% v/v). Compounds were dosed using an Echo Acoustic Liquid Handler, 25 nL of 1000× (10 mM top concentration) DMSO stock/well. Cells were incubated with compounds for 6 hours at 37° C., 5% CO2, >95% relative humidity. Each compound was run in duplicate.
# Nano Glo HiBiT Lytic Degradation Assay: HiBiT-tagged ERα protein levels were quantified using a Nano Glo HiBiT Lytic Degradation Assay following the manufacturer's protocol. Briefly, the Nano-Glo® HiBiT Lytic Reagent was prepared by diluting the LgBiT Protein reagent (1:100) and the Nano-Glo® HiBiT Lytic Substrate (1:50) into Nano-Glo® HiBiT Lytic Buffer at room temperature. The 384-well microplate were equilibrated to room temperature and 25 μL of Nano-Glo® HiBiT Lytic Reagent was added to each well. Samples were mixed by placing the 384-well microplate on an orbital shaker for 10 minutes. Luminescence was measured using an EnVision 2105 Multimode Plate Reader.
# Data processing and analysis: Background signal (wells containing growth medium without cells) was subtracted from individual relative light units (RLU) values and the resulting values were normalized to the DMSO control well values. Dose responses were analyzed with Genedata Screener® using a bell-shape curve fit and the concentrations corresponding to the half-maximal effect of the first Hill model were used as DC50 values.
row,SMILES,DC50 [nM]
1,"CC[C@H]1CCc2cc(O)ccc2[C@H]1c1ccc(N2CCC(CN3CCN(c4ccc5c(c4)CN([C@H]4CCC(=O)NC4=O)C5=O)CC3)CC2)cc1 (single isomer, unassigned) [Compound I-111]",332
2,"O=C1CC[C@H](N2Cc3cc(N4CCN(CC5CCN(c6ccc([C@@H]7c8ccc(O)cc8CO[C@@H]7c7ccc8c(c7)CC8)cc6)CC5)CC4)ccc3C2=O)C(=O)N1 (single isomer, unassigned) [Compound I-363]",0.17
3,"C[C@@H]1C[C@H](CN2CCN(c3ccc4c(c3)CN(C3CCC(=O)NC3=O)C4=O)CC2)CCN1c1ccc([C@@H]2c3ccc(O)cc3CC[C@@H]2c2ccccc2)cc1 (single isomer, unassigned) [II-48]",1
4,"O=C1CC[C@H](N2Cc3cc(N4CCN(CC5CCN(c6cc(F)c([C@@H]7c8ccc(O)cc8CC[C@@H]7C7CCCCC7)c(F)c6)CC5)CC4)ccc3C2=O)C(=O)N1 [Compound I-119, (S)-3-(5-(4-((1-(4-((1S,2R)-2-cyclohexyl-6-hydroxy-1,2,3,4-tetrahydronaphthalen-1-yl)-3,5-difluorophenyl)piperidin-4-yl)methyl)piperazin-1-yl)-1-oxoisoindolin-2-yl)piperidine-2,6-dione]",6
5,"O=C1CC[C@H](N2Cc3cc(N4CCN(CC5CCN(c6ccc([C@@H]7c8ccc(O)cc8C(F)(F)C[C@@H]7c7ccccc7F)cc6)CC5)CC4)ccc3C2=O)C(=O)N1 [Compound I-312, (S)-3-(5-(4-((1-(4-((1R,2S)-4,4-difluoro-2-(2-fluorophenyl)-6-hydroxy-1,2,3,4-tetrahydronaphthalen-1-yl)phenyl)piperidin-4-yl)methyl)piperazin-1-yl)-1-oxoisoindolin-2-yl)piperidine-2,6-dione]",0.37
6,"O=C1CC[C@H](N2Cc3cc(N4CCN(CC5CCN(c6ccc([C@@H]7c8ccc(O)cc8CO[C@@H]7c7ccc(F)cc7)cc6)CC5)CC4)ccc3C2=O)C(=O)N1 [Compound I-35, (S)-3-(5-(4-((1-(4-((3S,4R)-3-(4-fluorophenyl)-7-hydroxyisochroman-4-yl)phenyl)piperidin-4-yl)methyl)piperazin-1-yl)-1-oxoisoindolin-2-yl)piperidine-2,6-dione]",0.3
7,"O=C1CC[C@H](N2Cc3cc(N4CCN(CC5CCN(c6ccc([C@H]7c8ccc(O)cc8CC[C@H]7c7cccc8c7CCC8)cc6)CC5)CC4)ccc3C2=O)C(=O)N1 (single isomer, unassigned) [Compound I-411]",1
8,"C[C@H](C1CCN(c2ccc([C@@H]3c4ccc(O)cc4CC[C@@H]3c3ccccc3)cc2)CC1)N1CCN(c2ccc3c(c2)CN(C2CCC(=O)NC2=O)C3=O)CC1 (single isomer, unassigned) [II-69]",0.51
9,NC(=O)CCC(C(=O)O)N1Cc2cc(N3CCN(CC4CCN(c5ccc([C@@H]6c7ccc(O)cc7CO[C@@H]6c6ccccc6)cc5)CC4)CC3)ccc2C1=O (stereo partly drawn) [Compound I-400],7.75

# Continued, values first:
row,DC50 [nM],SMILES
1,0.4,"CC(C)[C@H]1CC(F)(F)c2cc(O)ccc2[C@H]1c1ccc(N2CCC(CN3CCN(c4ccc5c(c4)CN([C@H]4CCC(=O)NC4=O)C5=O)CC3)CC2)cc1 [Compound I-156, (S)-3-(5-(4-((1-(4-((1R,2R)-4,4-difluoro-6-hydroxy-2-isopropyl-1,2,3,4-tetrahydronaphthalen-1-yl)phenyl)piperidin-4-yl)methyl)piperazin-1-yl)-1-oxoisoindolin-2-yl)piperidine-2,6-dione]"
2,17,"O=C1CC[C@H](N2Cc3cc(N4CCN(CC5CCN(c6ccc([C@H]7c8ccc(O)cc8CC[C@@]78CCCc7ccccc78)cc6)CC5)CC4)ccc3C2=O)C(=O)N1 (single isomer, unassigned) [Compound I-266]"
3,3300,"C[C@@H]1CCc2cc(O)ccc2[C@@H]1c1ccc(N2CCC(CN3CCN(c4ccc5c(c4)CN([C@H]4CCC(=O)NC4=O)C5=O)CC3)CC2)cc1 [Compound I-125, (S)-3-(5-(4-((1-(4-((1S,2R)-6-hydroxy-2-methyl-1,2,3,4-tetrahydronaphthalen-1-yl)phenyl)piperidin-4-yl)methyl)piperazin-1-yl)-1-oxoisoindolin-2-yl)piperidine-2,6-dione]"
4,0.3,"O=C1CC[C@H](N2Cc3cc(N4CCN(CC5CCN(c6ccc([C@@H]7c8ccc(O)cc8C(F)(F)C[C@@H]7c7cc(F)ccc7F)cc6)CC5)CC4)ccc3C2=O)C(=O)N1 [Compound I-316, (S)-3-(5-(4-((1-(4-((1R,2S)-2-(2,5-difluorophenyl)-4,4-difluoro-6-hydroxy-1,2,3,4-tetrahydronaphthalen-1-yl)phenyl)piperidin-4-yl)methyl)piperazin-1-yl)-1-oxoisoindolin-2-yl)piperidine-2,6-dione]"
5,≥ 10000,"O=C1CC[C@H](N2Cc3cc(N4CCN(CC5CCN(c6ccc([C@H]7c8ccc(O)cc8CO[C@H]7c7ccccc7F)cc6)CC5)CC4)ccc3C2=O)C(=O)N1 [Compound I-348, (S)-3-(5-(4-((1-(4-((3R,4S)-3-(2-fluorophenyl)-7-hydroxyisochroman-4-yl)phenyl)piperidin-4-yl)methyl)piperazin-1-yl)-1-oxoisoindolin-2-yl)piperidine-2,6-dione]"
6,0.67,"O=C1CC[C@H](N2Cc3cc(N4CCN(CC5CCN(c6ccc([C@@H]7c8ccc(O)cc8C(F)(F)C[C@@H]7C7CCCCC7)cc6)CC5)CC4)ccc3C2=O)C(=O)N1 [Compound I-99, (S)-3-(5-(4-((1-(4-((1R,2R)-2-cyclohexyl-4,4-difluoro-6-hydroxy-1,2,3,4-tetrahydronaphthalen-1-yl)phenyl)piperidin-4-yl)methyl)piperazin-1-yl)-1-oxoisoindolin-2-yl)piperidine-2,6-dione]"
7,0.23,"O=C1CC[C@H](N2Cc3cc(N4CCN(CC5CCN(c6ccc([C@@H]7c8ccc(O)cc8C(F)(F)C[C@@H]7c7ccccc7)nc6)CC5)CC4)ccc3C2=O)C(=O)N1 [Compound I-203, (S)-3-(5-(4-((1-(6-((1S,2S)-4,4-difluoro-6-hydroxy-2-phenyl-1,2,3,4-tetrahydronaphthalen-1-yl)pyridin-3-yl)piperidin-4-yl)methyl)piperazin-1-yl)-1-oxoisoindolin-2-yl)piperidine-2,6-dione]"
8,1100,"COc1cc(N2CCC(CN3CCN(c4ccc5c(c4)CN([C@H]4CCC(=O)NC4=O)C5=O)CC3)CC2)c(-c2ccccc2)cc1[C@@H]1CCC(F)(F)c2cc(O)ccc21 [Compound I-405, (S)-3-(5-(4-((1-(5-((R)-4,4-difluoro-6-hydroxy-1,2,3,4-tetrahydronaphthalen-1-yl)-4-methoxy-[1,1′-biphenyl]-2-yl)piperidin-4-yl)methyl)piperazin-1-yl)-1-oxoisoindolin-2-yl)piperidine-2,6-dione]"
9,0.4,"Cn1c(=O)n(C2CCC(=O)NC2=O)c2ccc(N3CCN(CC4CCN(c5ccc([C@@H]6c7ccc(O)cc7CC[C@@H]6c6ccccc6)cc5)CC4)CC3)cc21 (stereo partly drawn) [Compound I-190, 3-(5-(4-((1-(4-((1R,2S)-6-hydroxy-2-phenyl-1,2,3,4-tetrahydronaphthalen-1-yl)phenyl)piperidin-4-yl)methyl)piperazin-1-yl)-3-methyl-2-oxo-2,3-dihydro-1H-benzo[d]imidazol-1-yl)piperidine-2,6-dione]"
10,0.93,"Cc1ccc([C@H]2CCc3cc(O)ccc3[C@H]2c2ccc(N3CCC(CN4CCN(c5ccc6c(c5)CN([C@H]5CCC(=O)NC5=O)C6=O)CC4)CC3)cc2)cc1 (single isomer, unassigned) [II-36]"
11,12.1,"Cn1c(=O)n([C@@H]2CCC(=O)NC2=O)c2ccc(N3CCN(CC4CCN(c5ccc([C@@H]6c7ccc(O)cc7C(F)(F)C[C@@H]6c6ccccc6)cc5)CC4)CC3)cc21 (single isomer, unassigned) [Compound I-278]"
12,0.76,"O=C1CCC(c2ccc(N3CC[C@@]4(CCN(CC5CCN(c6ccc([C@@H]7c8ccc(O)cc8CC[C@@H]7c7ccccc7)cc6)CC5)C4)C3)cc2)C(=O)N1 (single isomer, unassigned) [Compound I-280]"
